In patent US20100291236A1, “OSMIUM COMPOUNDS” (THE UNIVERSITY OF WARWICK, priority 2006, published 2010):
Where “and” joins values, the source holds several entries; their conditions need not be identical. Equal entries are not always repeated. Where two headings read alike, the source gives them in different places.

Key:
[1] = test system: human ovarian A2780 cancer cells; experiment: Cytotoxicity towards A2780 cells, sulforhodamine B (SRB) assay; assay type: cell-based
Method: (§1) Experimental: Cytotoxicity Towards A2780 and A549 Human Cancer Cells. After plating, human ovarian A2780 cancer cells were treated with Os^II complexes on day 3, and human lung A549 cancer cells on day 2, at concentrations ranging from 2 μM to 50 μM. Solutions of the Os^II complexes were made up in 0.125% DMSO to assist dissolution. Cells were exposed to the complexes for 24 h, washed, supplied with fresh medium, allowed to grow for three doubling times (72 h), and then the protein content measured (proportional to cell survival) using the sulforhodamine B (SRB) assay.
(§2) Cancer Cell Cytotoxicity. After plating, human ovarian A2780 cancer cells were treated with OsII complexes on day 3, and human lung A549 cancer cells on day 2, at concentrations ranging from 0.1 μM to 100 μM. Solutions of the OsII complexes were made up in 0.125% DMSO to assist dissolution. Cells were exposed to the complexes for 24 h, washed, supplied with fresh medium, allowed to grow for three doubling times (72 h), and then the protein content measured (proportional to cell survival) using the sulforhodamine B (SRB) assay.10

[2] = Stability in isotonic saline solutions; assay type: physicochemical; settings: after 16 days of storage in the dark
Method: Stability tests on AFAP42, 64, 62, 05, 51 and 65 in isotonic saline solutions were also performed.

[3] = test system: human lung A549 cancer cells; experiment: Cytotoxicity towards A549 cells, sulforhodamine B (SRB) assay; assay type: cell-based
Method: as §1, §2

[4] = Acidity (pKa / pKa*) of coordinated water, 1H NMR pH* titration
From the text: pKa* calculations. […] The chemical shifts of the arene ring protons were plotted against pH*. The pH* titration curves were fitted to the Henderson-Hasselbalch equation, with the assumption that the observed chemical shifts are weighted averages according to the populations of the protonated and deprotonated species.

[5] = Stability against formation of hydroxo-bridged dimers; assay type: physicochemical; settings: for Stability with no evidence of dimer formation: 50 μM, even after incubation at 310 K (24 h); for Formation of inert hydroxo-bridged dimers: micromolar concentrations
From the text: Complexes containing O,O-chelated ligands are deactivated at micromolar concentrations by loss of the chelate and formation of inert hydroxo-bridged dimers.

[6] = test system: human ovarian A2780 cancer cells; settings: Peacock et al, J. Am. Chem. Soc. 2006; said to be erroneous; cited from earlier work
[7] = Effect of chloride concentration on aqua adduct formation; assay type: physicochemical; settings: for % of aqua complex formed: 1 mM complex; for % aqua adduct: 1 mM complex in D2O, t = 10 min
From the text: The effects of chloride levels on the distribution of AFAP42 (“prodrug”) and its aqua analogue (“active species”) were investigated. […] Results are summarised in table 6, showing how the hydrolysis of AFAP42 is suppressed in solutions with chloride concentrations similar to those found in blood plasma. At chloride concentrations typical of the cells cytoplasm, complex AFAP42 hydrolyses to some extent and at chloride concentrations typical of the nucleus (where the proposed target, DNA, can be found), the complex is present predominantly as the “active species” the aqua complex.
The effects of chloride concentrations typical of blood plasma (100 mM), cell cytoplasm (22.7 mM) and cell nucleus (4 mM) on the aqueous chemistry of 3 and 6 were investigated. ^1H NMR spectra of 3 or 6 (1 mM) were recorded within 10 min of sample preparation and after incubation at 310 K for 24 h.

[8] = as above; assay type: physicochemical; settings: for % aqua adduct: 1 mM complex in D2O, t = 26 h
[9] = Hydrolysis (aquation) kinetics followed by 1H NMR; assay type: physicochemical; settings: for Hydrolysis k/h^−1: 5% MeOD-d4/95% D2O, pH* 2
Method: Hydrolysis. […] The rate of hydrolysis was determined by fitting plots of concentrations (determined by ^1H NMR peak integrals) versus time to a pseudo first-order equation using ORIGIN version 5.0 (Microcal Software Ltd.).

9-ethyl adenine (9EtA) = experiment: Reaction with nucleobase model 9-ethyl adenine, 1H NMR; assay type: binding; settings: for % 9EtA nucleobase adduct: 1 mM complex, 1 mol equivalent 9EtA, D2O
Method: (§3) Since DNA is believed to be the main target for metal anticancer drugs, nucleobase binding reactions of compounds 3-6, with nucleobase models, 9-ethyl guanine (9EtG) and 9-ethyl adenine (9EtA), were investigated.
(§4) Solutions of 3-6 (1 mM) (present as an equilibrium between 3-6 and their respective aqua adducts as the major species) with 1 mol equivalent of 9EtG (Table 14) or 9EtA (Table 15) in D2O were prepared and ^1H NMR spectra were taken at different time intervals.
(§5) Interactions with Nucleobases. The reaction of compounds 8-12 with nucleobases typically involved addition of a solution containing 1 mol equiv of nucleobase in D2O, to an equilibrium solution of compounds 8-12 in D2O (>90% aqua). The pH* value of the sample was adjusted if necessary so as to remain close to 7.4 (physiological). ^1H NMR spectra of these solutions were recorded at 298 K after various time intervals.

9-ethyl guanine (9EtG) = experiment: Reaction with nucleobase model 9-ethyl guanine, 1H NMR; assay type: binding; settings: for % 9EtG nucleobase adduct: 1 mM complex, 1 mol equivalent 9EtG, D2O
Method: as §3, §4, §5

[10] = Table 7, 24 h exposure, 72 h growth, 2-50 μM, read-out: IC50/μM A2780
[11] = Table 7, 24 h exposure, 72 h growth, 2-50 μM, read-out: IC50/μM A549
[12] = Table 8, compounds 1-6, read-out: A2780 IC50
[13] = Table 8, compounds 1-6, read-out: A549 IC50

[(η^6-p-cym)Os(quin)Cl] [AFAP62]
IC50 [1, 10]: 15 µM and 15.2 µM
Stability of isotonic saline solutions [2]: stable
IC50 [3, 11]: 60 µM
pKa of water coordinated on hydrolysis (aqua adduct of complex) [4]: 7.52
Stability with no evidence of dimer formation [5]: 100%

[(η^6-bip)Os(pico)Cl] [AFAP64]
IC50 [1, 10]: 4.2 µM
Stability of isotonic saline solutions [2]: stable
IC50 [3, 11]: 8 µM
pKa of water coordinated on hydrolysis (aqua adduct of complex) [4]: 6.30

CC(N)C(=O)[O][Os][Cl].Cc1ccc(C(C)C)cc1 [AFAP44]
IC50 [1, 10]: > 100 µM
IC50 [3, 11]: > 100 µM
pKa of water coordinated on hydrolysis (aqua adduct of complex) [4]: 7.05
Formation of inert hydroxo-bridged dimers [5]: form in small amounts

F[P-](F)(F)(F)(F)F.NCCN.[Cl][Os+].c1ccc(-c2ccccc2)cc1 [AFAP05, [(η^6-bip)Os(en)Cl]PF6]
IC50 [1, 10]: 7 µM
Stability of isotonic saline solutions [2]: stable
IC50 [3, 11]: 10 µM

Cc1ccc(C(C)C)cc1.NCCC(=O)[O][Os][Cl] [AFAP49]
IC50 [1, 10]: > 100 µM
IC50 [3, 11]: > 100 µM
pKa of water coordinated on hydrolysis (aqua adduct of complex) [4]: 7.43
Formation of inert hydroxo-bridged dimers [5]: form in small amounts

CC(C)(N)C(=O)[O][Os][Cl].Cc1ccc(C(C)C)cc1 [AFAP60]
IC50 [1, 10]: > 100 µM
IC50 [3, 11]: > 100 µM
pKa of water coordinated on hydrolysis (aqua adduct of complex) [4]: 7.08
Formation of inert hydroxo-bridged dimers [5]: form in small amounts

NCCN.[Cl][Os+].c1ccc(-c2ccccc2)cc1.c1ccc([B-](c2ccccc2)(c2ccccc2)c2ccccc2)cc1 [(III)]
Activity toward A2780 cells as previously reported [6]: inactive

[(η^6-p-cym)Os(pico)Cl] [AFAP42]
IC50 [1, 10]: 4.5 µM
Stability of isotonic saline solutions [2]: stable
IC50 [3, 11]: 17 µM
pKa of water coordinated on hydrolysis (aqua adduct of complex) [4]: 6.62
% of aqua complex formed ([7]; 4 mM [Cl], T = 0): 56.1% Aqua
% of aqua complex formed ([7]; 4 mM [Cl], T = 24 h (310 K)): 65.5% Aqua
% of aqua complex formed ([7]; 22.7 mM [Cl], T = 0): 29.8% Aqua
% of aqua complex formed ([7]; 100 mM [Cl], T = 0): 12% Aqua
% of aqua complex formed ([7]; 100 mM [Cl], T = 24 h (310 K)): 12.9% Aqua
% of aqua complex formed ([8]; 4 mM [Cl], 50 μM complex, T = 0): 73.5% Aqua
% of aqua complex formed ([8]; 4 mM [Cl], 50 μM complex, T = 24 h (310 K)): 72.1% Aqua
% of aqua complex formed ([8]; 22.7 mM [Cl], 50 μM complex, T = 0): 44.8% Aqua
% of aqua complex formed ([8]; 22.7 mM [Cl], 50 μM complex, T = 24 h (310 K)): 45.2% Aqua
% of aqua complex formed ([8]; 22.7 mM [Cl], 1 mM complex, T = 24 h (310 K)): 30.5% Aqua
% of aqua complex formed ([8]; 100 mM [Cl], 50 μM complex, T = 0): 0% Aqua
% of aqua complex formed ([8]; 100 mM [Cl], 50 μM complex, T = 24 h (310 K)): 0% Aqua
Stability with no evidence of dimer formation [5]: 100%

Cc1cccc(C(=O)[O][Os][Cl])n1.c1ccc(-c2ccccc2)cc1 [Compound 3, [(η^6-bip)Os(6-Me-pico)Cl]]
Hydrolysis k/h^−1 ([9]; 288 K): 0.219 ± 0.005 h⁻¹
Hydrolysis k/h^−1 ([9]; 298 K): 0.676 ± 0.039 h⁻¹
% 9EtA nucleobase adduct (9-ethyl adenine (9EtA); t = 10): 0%
% 9EtA nucleobase adduct (9-ethyl adenine (9EtA); t = 24 h): 9%
% 9EtA nucleobase adduct (9-ethyl adenine (9EtA); t = 72 h): 9%
binding to 9EtA (nucleobase adduct formation) (9-ethyl adenine (9EtA); time not given): 9%
IC50 [1, 12]: > 50 µM
IC50 [3, 13]: > 50 µM
pKa* of the aqua adduct [4]: 6.34
% aqua adduct ([7]; 4 mM NaCl): 50%
% aqua adduct ([7]; 22.7 mM NaCl): 60%
% aqua adduct ([7]; 100 mM NaCl): 35%
% 9EtG nucleobase adduct (9-ethyl guanine (9EtG); t = 10): 0%
% 9EtG nucleobase adduct (9-ethyl guanine (9EtG); t = 24 h): 30%
% 9EtG nucleobase adduct (9-ethyl guanine (9EtG); t = 72 h): 30%
binding to 9EtG (nucleobase adduct formation) (9-ethyl guanine (9EtG); time not given): 30%
% aqua adduct ([8]; 4 mM NaCl): 70%
% aqua adduct ([8]; 22.7 mM NaCl): 49%
% aqua adduct ([8]; 100 mM NaCl): 27%

Cc1ccc(C(C)C)cc1.NCC(=O)[O][Os][Cl] [AFAP43]
IC50 [1, 10]: > 100 µM
IC50 [3, 11]: > 100 µM
pKa of water coordinated on hydrolysis (aqua adduct of complex) [4]: 7.17
Formation of inert hydroxo-bridged dimers [5]: form in small amounts

Cc1ccnc(C(=O)[O][Os][Cl])c1.c1ccc(-c2ccccc2)cc1 [Compound 6, [(η^6-bip)Os(4-Me-pico)Cl]]
Aquation k/h^−1 ([9]; 278 K): 0.17 h⁻¹
Aquation k/h^−1 ([9]; 285 K): 0.44 h⁻¹
Hydrolysis k/h^−1 ([9]; 288 K): 0.710 ± 0.012 h⁻¹ and 0.71 h⁻¹
Hydrolysis k/h^−1 ([9]; 298 K): 2.32 ± 0.08 h⁻¹ and 2.32 h⁻¹
Ea of aquation ([9]; from rates at 278-298 K): 21.65 kcal/mol
ΔH^‡ of aquation ([9]; from rates at 278-298 K): 21 kcal/mol
ΔS^‡ of aquation ([9]; from rates at 278-298 K): −55.56 J K^−1 mol^−1
% 9EtA nucleobase adduct (9-ethyl adenine (9EtA); t = 10): 0%
% 9EtA nucleobase adduct (9-ethyl adenine (9EtA); t = 24 h): 60%
% 9EtA nucleobase adduct (9-ethyl adenine (9EtA); t = 72 h): 60%
Activity in A2780 cancer cell line [1]: toxic
IC50 [1, 12]: 4.4 µM
IC50 [3, 13]: 10 to 50 µM
pKa* of the aqua adduct [4]: 6.42
% aqua adduct ([7]; 4 mM NaCl): 82%
% aqua adduct ([7]; 22.7 mM NaCl): 53%
% aqua adduct ([7]; 100 mM NaCl): 10%
% 9EtG nucleobase adduct (9-ethyl guanine (9EtG); t = 10): 0%
% 9EtG nucleobase adduct (9-ethyl guanine (9EtG); t = 24 h): 80%
% 9EtG nucleobase adduct (9-ethyl guanine (9EtG); t = 72 h): 85%
% aqua adduct ([8]; 4 mM NaCl): 81%
% aqua adduct ([8]; 22.7 mM NaCl): 53%
% aqua adduct ([8]; 100 mM NaCl): 20%
